This is an account of results in patent US20230012368A1 (Hoffmann-La Roche Inc., priority 2018, published 2023).

Where a name gives a salt, the structure may show the parent alone.

The first assay relates to Acinetobacter baumannii ATCC 17978. Description: Antimicrobial susceptibility testing: 90% growth inhibitory concentration (IC90) determination. The class given is cell-based. The note with it: 90% growth inhibitory concentration; Acinetobacter baumannii ATCC17978; Iso-Sensitest broth, OD 600 nm over 16h; read-out: ATCC17978 IC90. The procedure, abridged: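 Compounds serially twofold diluted (e.g. 50 to 0.097 μM final) in Iso-Sensitest broth, inoculated at ~5×10^(5) CFU/ml, incubated at 35±2° C. OD600 read every 20 minutes over 16h. IC90 taken as concentration inhibiting 90% of growth during logarithmic phase.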
By IC90 is commonly meant the point of the concentration-response curve where the effect stands at 90%. As to `CCc1cc(Nc2nccn3c(-c4ccc(OC)c(F)c4F)cnc23)ccc1C(=O)NCC(C)CNC(=O)[C@@H](N)CCCNC(=N)N` (mixture of isomers) [Example 406, rac-N-(3-((R)-2-amino-5-guanidinopentanamido)-2-methylpropyl)-4-((3-(2,3-difluoro-4-methoxyphenyl)imidazo[1,2-a]pyrazin-8-yl)amino)-2-ethylbenzamide diformate], the IC90 is 240 nM.

Staying with this assay, now noted: Acinetobacter baumannii, ATCC17978, 16 h, 90% growth inhibitory concentration; Acinetobacter baumannii ATCC17978; Iso-Sensitest broth, OD 600 nm over 16h; read-out: ATCC17978 IC90.
Regarding `Cc1cc(Nc2nccn3c(-c4ccc(OCC#CCN)cc4)cnc23)ccc1C(=O)N(C)CCC1CCN(C)CC1` [Example 319, 4-[[3-[4-(4-aminobut-2-ynoxy)phenyl]imidazo[1,2-a]pyrazin-8-yl]amino]-N,2-dimethyl-N-[2-(1-methylpiperidin-4-yl)ethyl]benzamide;formic acid], the IC90 came out at 3300 nM. As for `CCc1cc(Nc2nccn3c(-c4ccc(OC)c(F)c4F)cnc23)ccc1C(=O)NCC(O)CNC(=O)[C@@H](N)CCNC(=N)N` (mixture of isomers) [Example 416, rac-N-(3-((R)-2-amino-4-guanidinobutanamido)-2-hydroxypropyl)-4-((3-(2,3-difluoro-4-methoxyphenyl)imidazo[1,2-a]pyrazin-8-yl)amino)-2-ethylbenzamide diformate], the IC90 amounted to 240 nM. For `CCc1cc(Nc2nccn3c(-c4ccc(Oc5ncccn5)c(F)c4F)cnc23)ccc1C(=O)NCCCNC(=O)C1CCN(CC2CCNC2)CC1` (stereo not drawn) [Example 545, N-(3-(4-((3-(2,3-difluoro-4-(pyrimidin-2-yloxy)phenyl)imidazo[1,2-a]pyrazin-8-yl)amino)-2-ethylbenzamido)propyl)-1-(pyrrolidin-3-ylmethyl)piperidine-4-carboxamide formate], the IC90 was found to be 310 nM. For `CCc1cc(Nc2nccn3c(-c4ccc(OC)c(F)c4F)cnc23)ccc1C(=O)NCCN1CCC[C@H](N)C1=O` [Example 347, N-[2-[(3S)-3-amino-2-oxopiperidin-1-yl]ethyl]-4-[[3-(2,3-difluoro-4-methoxyphenyl)imidazo[1,2-a]pyrazin-8-yl]amino]-2-ethylbenzamide], the IC90 is 1100 nM. Same read-out and setting: as for `COc1ccc(-c2cnc3c(Nc4ccc(C(=O)NCC5(O)CCNCC5)c(C)c4)nccn23)cc1F` [Example 285, 4-[[3-(3-fluoro-4-methoxyphenyl)imidazo[1,2-a]pyrazin-8-yl]amino]-N-[(4-hydroxypiperidin-4-yl)methyl]-2-methylbenzamide;2,2,2-trifluoroacetic acid], the figure is 2600 nM; as for `CCc1cc(Nc2nccn3c(-c4ccc(OCC#N)c(F)c4F)cnc23)ccc1C(=O)NCCNC(=O)CCCN` [Example 141, N-[2-(4-aminobutanoylamino)ethyl]-4-[[3-[4-(cyanomethoxy)-2,3-difluoro-phenyl]imidazo[1,2-a]pyrazin-8-yl]amino]-2-ethyl-benzamide formate], 70 nM; as for `Cc1cc(Nc2nccn3c(-c4ccc(OC(F)F)cc4)cnc23)ccc1C(=O)NCCCCCCN` [Example 21, N-(6-aminohexyl)-4-((3-(4-(difluoromethoxy)phenyl)imidazo[1,2-a]pyrazin-8-yl)amino)-2-methylbenzamide hydrochloride], 120 nM. Regarding `CNC(=O)c1ccc(Nc2nccn3c(-c4ccc(OC)c(F)c4F)cnc23)cc1C` [Example 538, 4-((3-(2,3-difluoro-4-methoxyphenyl)imidazo[1,2-a]pyrazin-8-yl)amino)-N,2-dimethylbenzamide], the IC90 stood at 27 nM. In the case of `CCc1cc(Nc2nccn3c(-c4ccc(OC)c(F)c4F)cnc23)ccc1C(=O)N[C@@H](C)CN` [Example 102, (S)-N-(1-aminopropan-2-yl)-4-((3-(2,3-difluoro-4-methoxyphenyl)imidazo [1,2-a]pyrazin-8-yl)amino)-2-ethylbenzamide dihydrochloride], the 90% effect concentration (IC90) is 320 nM. Same read-out and setting: as for `CN(CCN1CCNCC1)C(=O)c1ccc(Nc2nccn3c(-c4ccc(OCC#N)c(F)c4F)cnc23)cc1Cl` [Example 74, 2-chloro-4-((3-(4-(cyanomethoxy)-2,3-difluorophenyl)imidazo [1,2-a]pyrazin-8-yl)amino)-N-methyl-N-(2-(piperazin-1-yl)ethyl)benzamide], the figure is 60 nM; as for `CCc1cc(Nc2nccn3c(-c4ccc(OCC#N)c(F)c4F)cnc23)ccc1C(=O)NCCNC(=O)[C@@H](N)CCCCN` [Example 143, 4-[[3-[4-(cyanomethoxy)-2,3-difluoro-phenyl]imidazo[1,2-a]pyrazin-8-yl]amino]-N-[2-[[(2S)-2,6-diaminohexanoyl]amino]ethyl]-2-ethyl-benzamide formate], 160 nM.

Take `CCc1cc(Nc2nccn3c(-c4ccc(OC)c(F)c4F)cnc23)ccc1C(=O)NCC1(O)CCNC1` (stereo not drawn) [Example 528, 4-((3-(2,3-difluoro-4-methoxyphenyl)imidazo[1,2-a]pyrazin-8-yl)amino)-2-ethyl-N-((3-hydroxypyrrolidin-3-yl)methyl)benzamide hydrochloride]: the IC90 is 250 nM.

As to `CCc1cc(Nc2nccn3c(-c4ccc(O)c(F)c4F)cnc23)ccc1C(=O)NCCCN` [Example 289, N-(3-aminopropyl)-4-[[3-(2,3-difluoro-4-hydroxyphenyl)imidazo[1,2-a]pyrazin-8-yl]amino]-2-ethylbenzamide;hydrochloride], the IC90 was 4600 nM. For the molecule `CN(C)C(=O)c1ccc(Nc2nccn3c(-c4ccc(OC(F)F)cc4)cnc23)cc1CO` [Example 259, 4-[[3-[4-(difluoromethoxy)phenyl]im-idazo[1,2-a]pyrazin-8-yl]amino]-2-(hydroxymethyl)-N,N-dimethylbenzamide], the IC90 is 4100 nM. Take `COc1ccc(-c2cnc3c(Nc4ccc(C(=O)NCCNC(=O)CC[C@@H]5NC5=O)c(C)c4)nccn23)c(F)c1F` [Example 337, 4-[[3-(2,3-difluoro-4-methoxyphenyl)imidazo[1,2-a]pyrazin-8-yl]amino]-2-methyl-N-[2-[3-[(2S)-3-oxoaziridin-2-yl]propanoylamino]ethyl]benz-amide]: the IC90 came to 520 nM. Take `CCc1cc(Nc2nccn3c(-c4ccc(OC(F)F)c(F)c4F)cnc23)ccc1C(=O)N[C@@H](C)CNC(=O)C1CCN(CC2CNC2)CC1` (racemic) [Example 553, rac-(R)-1-(azetidin-3-ylmethyl)-N-(2-(4-((3-(4-(difluoromethoxy)-2,3-difluorophenyl)imidazo[1,2-a]pyrazin-8-yl)amino)-2-ethylbenzamido)propyl)piper-idine-4-carboxamide formate]: the IC90 came out at 260 nM. Take `COc1ccc(-c2cnc3c(Nc4ccc(C(=O)N(CCN5CCNCC5)CC(F)(F)F)c(C)c4)nccn23)cc1F` [Example 172, 4-[[3-(3-fluoro-4-methoxyphenyl)imidazo[1,2-a]pyrazin-8-yl]amino]-2-methyl-N-(2-piperazin-1-ylethyl)-N-(2,2,2-trifluoroethyl)benzamide; hy-drochloride]: the IC90 was 6200 nM. Take `COc1ccc(-c2cnc3c(Nc4ccc(C(=O)N[C@@H](C)CNC(C)=N)c(C)c4)nccn23)c(F)c1F` [Example 488, 4-[[3-(2,3-difluoro-4-methoxyphenyl)imidazo[1,2-a]pyrazin-8-yl]amino]-#N!- [(2#S!)-1-(ethanimidoylamino)propan-2-yl]-2-methylbenzamide;formic acid]: the concentration for an effect of 90% (IC90) was determined as 290 nM.

As to `CCc1cc(Nc2nccn3c(-c4ccc(OC)c(F)c4F)cnc23)ccc1C(=O)NCC(=O)NCCNC` [Example 428, 4-[[3-(2,3-difluoro-4-methoxy-phenyl)imidazo[1,2-a]pyrazin-8-yl]amino]-2-ethyl-N-[2-[2-(methylamino)ethylamino]-2-oxo-ethyl]benzamide; formic acid], the IC90 amounted to 410 nM. As to `COc1ccc(-c2cnc3c(Nc4ccc(C(=O)NCCC5CCNCC5)c(C)c4)nccn23)cc1` [Example 191, 4-[[3-(4-methoxyphenyl)imidazo[1,2-a]pyrazin-8-yl]amino]-2-methyl-N-(2-piperidin-4-ylethyl)benzamide;hydrochlo-ride], the IC90 amounted to 330 nM. With `COc1ccc(-c2cnc3c(Nc4ccc(C(=O)N(C)Cc5ccncn5)c(C)c4)nccn23)cc1F` [Example 39, 4-[[3-(3-fluoro-4-methoxy-phenyl)imidazo[1,2-a]pyrazin-8-yl]amino]-N,2-dimethyl-N-(pyrimidin-4-ylmethyl)benzamide], the IC90 worked out at 240 nM. With `CCc1cc(Nc2nccn3c(-c4ccc(OC)c(F)c4F)cnc23)ccc1C(=O)N[C@H](C)CCN` [Example 303, N-[(2R)-4-aminobutan-2-yl]-4-[[3-(2,3-difluoro-4-methoxyphenyl)imidazo[1,2-a]pyrazin-8-yl]amino]-2-ethylbenzamide;hydrochloride], the IC90 was 360 nM.

For `C#CCNC(=O)c1ccc(Nc2nccn3c(-c4ccc(OC)c(F)c4F)cnc23)cc1CC` [Example 541, 4-[[3-(2,3-difluoro-4-methoxyphenyl)imidazo[1,2-a]pyrazin-8-yl]amino]-2-ethyl-N-prop-2-ynylbenzamide], the IC90 came to 62 nM. Still for that read-out and setting: as for `Cc1cc(Nc2nccn3c(-c4ccc(OC(F)F)cc4)cnc23)ccc1C(=O)N(C)CCN1CCOC(C)(C)C1` [Example 255, 4-[[3-[4-(difluoromethoxy)phenyl]im-idazo[1,2-a]pyrazin-8-yl]amino]-N-[2-(2,2-dimethylmorpholin-4-yl)ethyl]-N,2-dimethylbenzamide], the figure is 2200 nM. Take `COc1ccc(-c2cnc3c(Nc4ccc(C(=O)N(C)CCN)cc4)nccn23)cc1` [Example 264, N-(2-aminoethyl)-4-[[3-(4-methoxyphenyl)imidazo[1,2-a]pyrazin-8-yl]amino]-N-methylbenzamide; hydrochlo-ride]: the IC90 amounted to 5100 nM. With `COc1ccc(-c2cnc3c(Nc4ccc(C(=O)N[C@H](C)CN)c(C)c4)nccn23)c(F)c1F` [Example 506, #N!-[(2#R!)-1-aminopropan-2-yl]-4-[[3-(2,3-difluoro-4-methoxyphenyl)imidazo[1,2-a]pyrazin-8-yl]amino]-2-methylbenzamide;dihydrochlo-ride], the IC90 was 130 nM.
